Measured values reported in patent US20150119363A1, “METHODS OF TREATING BACTERIAL INFECTIONS” (Rampex Pharmaceuticals, Inc., priority 2012, published 2015).

Columns and labels:
Test in all cases: Dose titration biapenem potentiation assay (MPC1)
Conditions in all cases: biapenem 1 μg/mL
[1] = system: EC1007 KPC-3; format: cell-based, Escherichia coli
Description: (§1) The potency and spectrum of β-lactamase inhibitors is also determined by assessing their biapenem potentiation activity in a dose titration potentiation assay using strains expressing serine carbapemenases (such as KPC). The potentiation effect is observed as the ability of BLI compounds to inhibit growth in the presence of sub-inhibitory concentration of biapenem. […] Biapenem is present in the test medium at 1 μg/mL. Compounds tested at the highest concentration of 40 μg/mL. […] Table 5 summarizes BLI potency of biapenem potentiation (MPC1). Biapenem MIC for each strain is also shown.

[2] = system: KP1004 KPC-2; format: cell-based, Klebsiella pneumoniae
Description: as §1

[3] = system: KP1008 KPC-2; format: cell-based, Klebsiella pneumoniae
Description: as §1

[4] = system: ECL1004 NMC-A; format: cell-based, Enterobacter cloacae
Description: as §1

O=C(O)CC1C=CC[C@H](NC(=O)Cc2cccs2)B(O)O1 (stereo partly drawn) [Compound 64, 2-((3R)-2-hydroxy-3-(2-(thiophen-2-yl)acetamido)-2,3,4,7-tetrahydro-1,2-oxaborepin-7-yl)acetic acid]
BPM MPC1 EC1007 KPC-3 [1]: X (X = MPC1 of less than 1 μg/mL.)
BPM MPC1 KP1004 KPC-2 [2]: Y (Y = MPC1 of 1 μg/mL to 5 μg/mL.)
BPM MPC1 KP1008 KPC-2 [3]: X (X = MPC1 of less than 1 μg/mL.)
BPM MPC1 ECL1004 NMC-A [4]: X (X = MPC1 of less than 1 μg/mL.)

O=C(O)C[C@@H]1CC[C@H](NC(=O)Cn2ccnc2-c2ccccc2)B(O)O1 [Compound 54, 2-((3R,6S)-2-hydroxy-3-(2-(2-phenyl-1H-imidazol-1-yl)acetamido)-1,2-oxaborinan-6-yl)acetic acid]
BPM MPC1 EC1007 KPC-3 [1]: X (X = MPC1 of less than 1 μg/mL.)
BPM MPC1 KP1004 KPC-2 [2]: X (X = MPC1 of less than 1 μg/mL.)
BPM MPC1 KP1008 KPC-2 [3]: X (X = MPC1 of less than 1 μg/mL.)
BPM MPC1 ECL1004 NMC-A [4]: X (X = MPC1 of less than 1 μg/mL.)

C[C@]1(Cn2ccnn2)[C@H](C(=O)N[C@H]2CC[C@@H](CC(=O)O)OB2O)N2C(=O)C[C@H]2S1(=O)=O [Compound 59, 2-[(3R,6S)-2-hydroxy-3-[(2S,3S,5R)-3-methyl-4,4,7-trioxo-3-(1H-1,2,3-triazol-1-ylmethyl)-4λ^6-thia-1-azabicyclo[3.2.0]heptane-2-amido]-1,2-oxaborinan-6-yl]acetic acid]
BPM MPC1 EC1007 KPC-3 [1]: X (X = MPC1 of less than 1 μg/mL.)
BPM MPC1 KP1004 KPC-2 [2]: Y (Y = MPC1 of 1 μg/mL to 5 μg/mL.)
BPM MPC1 KP1008 KPC-2 [3]: X (X = MPC1 of less than 1 μg/mL.)
BPM MPC1 ECL1004 NMC-A [4]: X (X = MPC1 of less than 1 μg/mL.)

N[C@H](C(=O)N[C@H]1CC[C@@H](CC(=O)O)OB1O)c1ccccc1 [Compound 33, 2-((3R,6S)-3-((S)-2-amino-2-phenylacetamido)-2-hydroxy-1,2-oxaborinan-6-yl)acetic acid]
BPM MPC1 EC1007 KPC-3 [1]: X (X = MPC1 of less than 1 μg/mL.)
BPM MPC1 KP1004 KPC-2 [2]: X (X = MPC1 of less than 1 μg/mL.)
BPM MPC1 KP1008 KPC-2 [3]: X (X = MPC1 of less than 1 μg/mL.)
BPM MPC1 ECL1004 NMC-A [4]: X (X = MPC1 of less than 1 μg/mL.)

O=C(O)C[C@@H]1CC[C@H](NC(=O)c2ccccc2)B(O)O1 [Compound 37, 2-((3R,6S)-3-benzamido-2-hydroxy-1,2-oxaborinan-6-yl)acetic acid]
BPM MPC1 EC1007 KPC-3 [1]: X (X = MPC1 of less than 1 μg/mL.)
BPM MPC1 KP1004 KPC-2 [2]: X (X = MPC1 of less than 1 μg/mL.)
BPM MPC1 KP1008 KPC-2 [3]: X (X = MPC1 of less than 1 μg/mL.)
BPM MPC1 ECL1004 NMC-A [4]: X (X = MPC1 of less than 1 μg/mL.)

N[C@H](CCCN/C(=N/C(=O)OCc1ccccc1)NC(=O)OCc1ccccc1)C(=O)N[C@H]1CC[C@@H](CC(=O)O)OB1O [Compound 44, 2-((3R,6S)-3-((R)-2-amino-5-((Z)-2,3-bis(benzyloxycarbonyl)guanidino)pentanamido)-2-hydroxy-1,2-oxaborinan-6-yl)acetic acid]
BPM MPC1 EC1007 KPC-3 [1]: X (X = MPC1 of less than 1 μg/mL.)
BPM MPC1 KP1004 KPC-2 [2]: X (X = MPC1 of less than 1 μg/mL.)
BPM MPC1 KP1008 KPC-2 [3]: X (X = MPC1 of less than 1 μg/mL.)
BPM MPC1 ECL1004 NMC-A [4]: Y (Y = MPC1 of 1 μg/mL to 5 μg/mL.)

O=C(O)C[C@@H]1CC[C@H](NC(=O)c2ccc(Cn3cnnn3)cc2)B(O)O1 [Compound 56, 2-((3R,6S)-3-(4-((1H-tetrazol-1-yl)methyl)benzamido)-2-hydroxy-1,2-oxaborinan-6-yl)acetic acid]
BPM MPC1 EC1007 KPC-3 [1]: X (X = MPC1 of less than 1 μg/mL.)
BPM MPC1 KP1004 KPC-2 [2]: X (X = MPC1 of less than 1 μg/mL.)
BPM MPC1 KP1008 KPC-2 [3]: X (X = MPC1 of less than 1 μg/mL.)
BPM MPC1 ECL1004 NMC-A [4]: X (X = MPC1 of less than 1 μg/mL.)

O=C(O)C[C@@H]1CC[C@H](NC(=O)Cc2cccnc2)B(O)O1 [Compound 43, 2-((3R,6S)-2-hydroxy-3-(2-(pyridin-3-yl)acetamido)-1,2-oxaborinan-6-yl)acetic acid]
BPM MPC1 EC1007 KPC-3 [1]: X (X = MPC1 of less than 1 μg/mL.)
BPM MPC1 KP1004 KPC-2 [2]: X (X = MPC1 of less than 1 μg/mL.)
BPM MPC1 KP1008 KPC-2 [3]: X (X = MPC1 of less than 1 μg/mL.)
BPM MPC1 ECL1004 NMC-A [4]: X (X = MPC1 of less than 1 μg/mL.)

O=C(O)C[C@@H]1CC[C@H](NC(=O)CCc2ccccc2)B(O)O1 [Compound 38, 2-((3R,6S)-2-hydroxy-3-(3-phenylpropanamido)-1,2-oxaborinan-6-yl)acetic acid]
BPM MPC1 EC1007 KPC-3 [1]: X (X = MPC1 of less than 1 μg/mL.)
BPM MPC1 KP1004 KPC-2 [2]: X (X = MPC1 of less than 1 μg/mL.)
BPM MPC1 KP1008 KPC-2 [3]: X (X = MPC1 of less than 1 μg/mL.)
BPM MPC1 ECL1004 NMC-A [4]: X (X = MPC1 of less than 1 μg/mL.)

O=C(O)C[C@@H]1CC[C@H](NC(=O)[C@@H]2CCCCN2)B(O)O1 [Compound 45, 2-((3R,6S)-2-hydroxy-3-((S)-piperidine-2-carboxamido)-1,2-oxaborinan-6-yl)acetic acid]
BPM MPC1 EC1007 KPC-3 [1]: X (X = MPC1 of less than 1 μg/mL.)
BPM MPC1 KP1004 KPC-2 [2]: Y (Y = MPC1 of 1 μg/mL to 5 μg/mL.)
BPM MPC1 KP1008 KPC-2 [3]: X (X = MPC1 of less than 1 μg/mL.)
BPM MPC1 ECL1004 NMC-A [4]: Z (Z = MPC1 of greater than 5 μg/mL.)
